Experimental data as given in patent publication US12570648B2, “6,7-dihydro-5H-pyrido[2,3-c]pyridazine derivatives and related compounds as Bcl-xL protein inhibitors and pro-apoptotic agents for treating cancer” (LES LABORATOIRES SERVIER, priority 2019, dated 2026).

Tests used:
[1] = biological target: GST(1-218)-(FACTOR_XA)-hsBCLXL(2-209) (Homo sapiens (Human), UniProt Q07817); experiment: Fluorescence polarisation assay; assay type: binding
Protocol: Fluorescence polarization measures the rotation of a fluorescing species in solution, the larger the molecule the more polarized the fluorescence emission.
(GST UniProtKB® primary accession number P08515 and BCLXL UniProtKB® primary accession number Q07817-1), • resulting in an increase in anisotropy. If a compound is added which competitively binds to the same site as the probe, thereby releasing it, anisotropy decreases due to the increased amount of free probe.
An 11-point serial dilution of each compound was prepared in DMSO, the final buffer conditions were 10 mM 4-(2-hydroxyethyl)-1-piperazineethanesulfonic acid [HEPES], 150 mM NaCl, 0.05% Tween 20, pH 7.4 and 5% DMSO. The final protein concentration in the assay was 20 nM with the fluorescent probe present at 10 nM. […] 1; 37 (WebServer issue): W441-W445.

[2] = biological target: His-His-(EK)-hsBCLXL(2-197)[N197C] (Homo sapiens (Human), UniProt Q07817, N197C); experiment: Fluorescence quenching assay; assay type: binding; conditions: 1 nM Cy5-labelled protein, 400 nM PUMA peptide, 2 hours at 23° C.; KI determined from IC50
Summary of the method: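 Ki values converted from IC50s, measured as fluorescence increase (Ex 620/Em 680 nm) after 2 h at 23° C. Compounds were titrated over 11 points against 1 nM Cy5-BCL-xL and 400 nM quencher-tagged PUMA peptide in pH 7.4 HEPES (10 mM), 150 mM NaCl, 0.05% Tween 20, 5% DMSO.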

H146 cells = experiment: H146 cell viability using MTT assay; assay type: cell-based; conditions: Homo sapiens, NCI-H146, 48 h exposure
Summary of the method: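 IC50 comes from four-parameter fits of optical density at 540 nm. Readout used 4 h MTT reduction followed by overnight SDS/HCl solubilisation, after 48 h compound exposure across nine 3.16-fold dilutions in triplicate. Culture medium was RPMI 1640 with 10% heat-inactivated FBS, antibiotics and L-glutamine.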

MOLT-4 cells = experiment: MOLT-4 cell viability using MTT assay; assay type: cell-based; conditions: Homo sapiens, MOLT-4, 48 h, 48 h exposure
Protocol: MTT colorimetric assay is based on the mitochondrial reduction of tetrazolium salt by living cells.
Cells were cultured at 37° C. in a humidified atmosphere containing 5% CO2. […] At the end of incubation time, 15 μL of MTT solution (5 mg/ml) were added per well and the cells were incubated for another 4 h. […] IC50s were calculated using standard four-parametric curve fitting.

Sequence of His-His-(EK)-hsBCLXL(2-197)[N197C] (Q07817 2-197 N197C): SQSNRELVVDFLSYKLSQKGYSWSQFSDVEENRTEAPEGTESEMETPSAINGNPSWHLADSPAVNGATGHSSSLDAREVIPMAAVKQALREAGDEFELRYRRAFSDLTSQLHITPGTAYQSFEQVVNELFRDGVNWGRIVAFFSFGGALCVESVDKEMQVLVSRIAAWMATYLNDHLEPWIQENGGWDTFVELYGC
Sequence of GST(1-218)-(FACTOR_XA)-hsBCLXL(2-209) (Q07817 other isoform, or with tags, fused parts or gaps): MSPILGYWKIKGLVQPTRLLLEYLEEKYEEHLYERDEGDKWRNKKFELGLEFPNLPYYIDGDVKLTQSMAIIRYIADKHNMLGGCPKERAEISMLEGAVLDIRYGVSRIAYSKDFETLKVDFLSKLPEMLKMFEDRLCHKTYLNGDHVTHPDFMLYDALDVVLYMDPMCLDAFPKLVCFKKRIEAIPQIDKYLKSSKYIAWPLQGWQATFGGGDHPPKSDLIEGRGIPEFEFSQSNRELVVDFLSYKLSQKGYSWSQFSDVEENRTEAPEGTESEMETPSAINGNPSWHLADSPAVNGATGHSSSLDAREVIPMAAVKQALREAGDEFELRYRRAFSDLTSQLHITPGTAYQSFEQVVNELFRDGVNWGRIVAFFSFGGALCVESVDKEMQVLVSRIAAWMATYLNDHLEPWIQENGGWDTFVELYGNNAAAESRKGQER

Row | Ki [1] | Ki [2] | IC50 (H146 cells) | IC50 (MOLT-4 cells) | SMILES
1 | 30 nM | – | – | – | O=C(O)c1csc(N2CCCc3cc(Nc4nc5ccccc5s4)nnc32)n1 [Example 12, 2-{3-[(1,3-Benzothiazol-2-yl)amino]-5H,6H,7H,8H-pyrido[2,3-c]pyridazin-8-yl}-1,3-thiazole-4-carboxylic acid]
2 | 9.6 nM | – | – | – | Cc1c(Nc2nc3ccccc3s2)nnc2c1CCCCN2c1ccc(-c2cnn(CC34CC5CC(CC(C5)C3)C4)c2C)c(C(=O)O)n1 [Example 29, 3-{1-[(Adamantan-1-yl)methyl]-5-methyl-1H-pyrazol-4-yl}-6-{3-[(1,3-benzothiazol-2-yl)amino]-4-methyl-5H,6H,7H,8H,9H-pyridazino[3,4-b]azepin-9-yl}pyridine-2-carboxylic acid]
3 | > 10000 nM | – | – | – | O=C(O)c1csc(N2CCOc3cc(Nc4nc5ccccc5s4)ccc32)n1 [Example 4, 2-{7-[(1,3-Benzothiazol-2-yl)amino]-3,4-dihydro-2H-1,4-benzoxazin-4-yl}-1,3-thiazole-4-carboxylic acid]
4 | – | 0.0048 nM | 6.65 nM | 0.817 nM | Cc1c(Nc2nc3ccccc3s2)nnc2c1CCCN2c1nc(C(=O)O)c(CCCOc2ccc(C#CCN3CCC4(CC3)CNC(=O)C4)cc2F)s1 [Example 58, 2-[3-(1,3-Benzothiazol-2-ylamino)-4-methyl-6,7-dihydro-5H-pyrido[2,3-c]pyridazin-8-yl]-5-[3-[2-fluoro-4-[3-(3-oxo-2,8-diazaspiro[4.5]decan-8-yl)prop-1-ynyl]phenoxy]propyl]thiazole-4-carboxylic acid]
5 | > 10000 nM | – | – | – | O=C(O)c1cccc(-n2ccc3cc(Nc4nc5ccccc5s4)ccc32)n1 [Example 5, 6-{5-[(1,3-Benzothiazol-2-yl)amino]-1H-indol-1-yl}pyridine-2-carboxylic acid]
6 | – | 0.0031 nM | 11.7 nM | 1.71 nM | Cc1c(Nc2nc3ccccc3s2)nnc2c1CCCN2c1nc(C(=O)O)c(CCCOc2ccc(C#CC(C)N3CCCC3)cc2F)s1 (stereo not shown) [Example 43, 2-[3-(1,3-Benzothiazol-2-ylamino)-4-methyl-6,7-dihydro-5H-pyrido[2,3-c]pyridazin-8-yl]-5-[3-[2-fluoro-4-(3-pyrrolidin-1-ylbut-1-ynyl)phenoxy]propyl]thiazole-4-carboxylic acid]
7 | 37000 nM | – | – | – | O=C(O)c1csc(N2CCCc3cc(Nc4nc5ccccc5s4)ccc32)n1 [Example 1, 2-{6-[(1,3-Benzothiazol-2-yl)amino]-1,2,3,4-tetrahydroquinolin-1-yl}-1,3-thiazole-4-carboxylic acid]
8 | 120 nM | – | – | – | Cc1c(Nc2nc3ccccc3s2)nnc2c1CCCCN2c1nc(C(=O)O)cs1 [Example 25, 2-{3-[(1,3-Benzothiazol-2-yl)amino]-4-methyl-5H,6H,7H,8H,9H-pyridazino[3,4-b]azepin-9-yl}-1,3-thiazole-4-carboxylic acid]
9 | – | 0.0092 nM | 5.65 nM | 0.949 nM | Cc1c(Nc2nc3ccccc3s2)nnc2c1CCCN2c1nc(C(=O)O)c(CCCOc2ccc(C#CCN3CCCC(O)C3)cc2F)s1 (stereo not shown) [Example 55, 2-[3-(1,3-Benzothiazol-2-ylamino)-4-methyl-6,7-dihydro-5H-pyrido[2,3-c]pyridazin-8-yl]-5-[3-[2-fluoro-4-[3-(3-hydroxy-1-piperidyl)prop-1-ynyl]phenoxy]propyl]thiazole-4-carboxylic acid]

Further lines, the compound ahead of its results:

Row | SMILES | Ki [1] | Ki [2] | IC50 (H146 cells) | IC50 (MOLT-4 cells)
10 | O=C(O)c1csc(-n2ccc3cc(Nc4nc5ccccc5s4)ncc32)n1 [Example 7, 2-{5-[(1,3-Benzothiazol-2-yl)amino]-1H-pyrrolo[2,3-c]pyridin-1-yl}-1,3-thiazole-4-carboxylic acid] | 9900 nM | – | – | –
11 | Cc1c(Nc2nccs2)nnc2c1CCN2c1nc(C(=O)O)cs1 [Example 18, 2-{4-Methyl-3-[(1,3-thiazol-2-yl)amino]-5H,6H,7H-pyrrolo[2,3-c]pyridazin-7-yl}-1,3-thiazole-4-carboxylic acid] | 5000 nM | – | – | –
12 | O=C(O)c1csc(N2CCc3cc(Nc4nc5ccccc5s4)ccc32)n1 [Example 3, 2-{5-[(1,3-Benzothiazol-2-yl)amino]-2,3-dihydro-1H-indol-1-yl}-1,3-thiazole-4-carboxylic acid] | 36000 nM | – | – | –
13 | O=C(O)c1csc(-n2ccc3cc(Nc4nc5ccccc5s4)ccc32)n1 [Example 2, 2-{5-[(1,3-Benzothiazol-2-yl)amino]-1H-indol-1-yl}-1,3-thiazole-4-carboxylic acid] | > 10000 nM | – | – | –
14 | CC1Cc2cc(Nc3nc4ccccc4s3)nnc2N1c1nc(C(=O)O)cs1 (stereo not shown) [Example 16, 2-{3-[(1,3-Benzothiazol-2-yl)amino]-6-methyl-5H,6H,7H-pyrrolo[2,3-c]pyridazin-7-yl}-1,3-thiazole-4-carboxylic acid] | 120 nM | – | – | –
15 | O=C(O)c1csc(-n2ccc3cc(Nc4nc5ccccc5s4)cnc32)n1 [Example 6, 2-{5-[(1,3-Benzothiazol-2-yl)amino]-1H-pyrrolo[2,3-b]pyridin-1-yl}-1,3-thiazole-4-carboxylic acid] | > 10000 nM | – | – | –
16 | Cc1c(Nc2nc3ccccc3s2)nnc2c1CCCN2c1nc(C(=O)O)c(CCCOc2ccc(C#CCN(C)C)cc2Br)s1 [Example 59, 2-{3-[(1,3-Benzothiazol-2-yl)amino]-4-methyl-5H,6H,7H,8H-pyrido[2,3-c]pyridazin-8-yl}-5-(3-{2-bromo-4-[3-(dimethylamino)prop-1-yn-1-yl]phenoxy}propyl)-1,3-thiazole-4-carboxylic acid] | – | 0.023 nM | 17.3 nM | 3.36 nM
17 | Cc1c(Nc2nc3ccccc3s2)nnc2c1CCCN2c1nc(C(=O)O)c(CCCOc2ccc(CCCN3CCCCC3)cc2F)s1 [Example 71, 2-[3-(1,3-Benzothiazol-2-ylamino)-4-methyl-6,7-dihydro-5H-pyrido[2,3-c]pyridazin-8-yl]-5-[3-[2-fluoro-4-[3-(1-piperidyl)propyl]phenoxy]propyl]thiazole-4-carboxylic acid] | – | 0.0045 nM | 9.3 nM | 2.11 nM
18 | CNCC#Cc1ccc(OCCCc2sc(N3CC(O)Cc4c3nnc(Nc3nc5ccccc5s3)c4C)nc2C(=O)O)c(F)c1 (stereo not shown) [Example 38, 2-[3-(1,3-Benzothiazol-2-ylamino)-6-hydroxy-4-methyl-6,7-dihydro-5H-pyrido[2,3-c]pyridazin-8-yl]-5-[3-[2-fluoro-4-[3-(methylamino)prop-1-ynyl]phenoxy]propyl]thiazole-4-carboxylic acid] | – | 0.0029 nM | 22.1 nM | 59.4 nM
19 | O=C(O)c1csc(-n2ccc3cc(Nc4nc5ccccc5s4)nnc32)n1 [Example 8, 2-{3-[(1,3-Benzothiazol-2-yl)amino]-7H-pyrrolo[2,3-c]pyridazin-7-yl}-1,3-thiazole-4-carboxylic acid] | 1100 nM | – | – | –
20 | Cc1c(Nc2nc3ccccc3s2)nnc2c1CCCN2c1nc(C(=O)O)c(CCCOc2ccc(CCCN3CCC3)cc2F)s1 [Example 67, 5-[3-[4-[3-(Azetidin-1-yl)propyl]-2-fluoro-phenoxy]propyl]-2-[3-(1,3-benzothiazol-2-ylamino)-4-methyl-6,7-dihydro-5H-pyrido[2,3-c]pyridazin-8-yl]thiazole-4-carboxylic acid] | – | 0.0032 nM | 14.6 nM | 7.4 nM
21 | Cc1c(Nc2nc3ccccc3s2)nnc2c1CCCN2c1nc(C(=O)O)c(CCCOc2ccc(CCCCN(C)C)cc2F)s1 [Example 62, 2-{3-[(1,3-Benzothiazol-2-yl)amino]-4-methyl-5H,6H,7H,8H-pyrido[2,3-c]pyridazin-8-yl}-5-(3-{4-[4-(dimethylamino)butyl]-2-fluorophenoxy}propyl)-1,3-thiazole-4-carboxylic acid] | – | 0.0034 nM | 69 nM | 20.2 nM
